{"source": "patent US20100240686A1", "about": "“CHEMICAL COMPOUNDS” (priority 2006, published 2010)", "molecular_target": "T1, CDK2/Cyclin E (Homo sapiens, UniProt P24941)", "T1 construct": "The open reading frames of CDK2 and Cyclin E were isolated by reverse transcriptase-PCR; made in house; host or cells: Spodoptera frugiperda SF21 insect cells (baculovirus co-infection, pVL1393)", "test": "in vitro kinase assay, Scintillation Proximity Assay (incorporation of [γ-33-P]-ATP into GST-Rb)", "assay_type": "biochemical", "details": "CDK2/Cyclin E partially-purified enzyme, GST-Rb substrate, 0.2 μM ATP, room temperature 60 minutes; read-out: CDK2 inhibitory activity IC50", "description": "The compounds were tested in an in vitro kinase assay in 96 well format using Scintillation Proximity Assay (SPA—obtained from Amersham) for measuring incorporation of [γ-33-P]-Adenosine Triphosphate into a test substrate (GST-Retinoblastoma protein; GST-Rb). In each well was placed the compound to be tested (diluted in DMSO and water to correct concentrations) and in control wells either roscovitine as an inhibitor control or DMSO as a […] control.\nApproximately 0.2 μl of CDK2/Cyclin E partially-purified enzyme (amount dependent on enzyme activity) diluted in 25 μl incubation buffer was added to each well then 20 μl of GST-Rb/ATP/ATP33 mixture (containing 0.5 μg GST-Rb and 0.2 μM ATP and 0.14 μCi [γ-33-P]-Adenosine Triphosphate in incubation buffer), and the resulting mixture shaken gently, then incubated at room temperature for 60 minutes. […]\nThe plates were sealed with Topseal-S plate sealers, left for two hours then spun at 2500 rpm, 1124×g., for 5 minutes. The plates were read on a Topcount for 30 seconds per well. […]\nThe open reading frames of CDK2 and Cyclin E were isolated by reverse transcriptase-PCR using HeLa cell and activated T cell mRNA as a template and cloned into the insect expression vector pVL1393 (obtained from Invitrogen 1995 catalogue number: V1392-20). […]"}
{"smiles": "Cc1ncc(-c2ccnc(Nc3ccc(C(=O)NCCN(C)C)c(F)c3)n2)n1C(C)C", "note": "[Example 2, N-(2-Dimethylaminoethyl)-2-fluoro-4-[[4-(2-methyl-3-propan-2-yl-imidazol-4-yl)pyrimidin-2-yl]amino]benzamide]", "values": [{"measurement": "IC50", "result": 3, "unit": "nM"}]}
